Data: PubChem BioAssay (NCI)
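In this assay, cells in 96-well plates receive the compound at five concentrations for 48 hours. Endpoints are linearly interpolated between the surrounding concentrations. TGI: total growth inhibition.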

Tests used:
Assay in all cases: NCI tumour cell line growth inhibition, 48 h
[1] = system: MOLT-4 leukemia
[2] = system: SK-MEL-5 melanoma
[3] = system: PC-3 prostate
[4] = system: HS 578T breast
[5] = system: A498 renal
[6] = system: EKVX NSCLC
[7] = system: UO-31 renal
[8] = system: NCI-H460 lung
[9] = system: OVCAR-4 ovarian
[10] = system: MDA-N
[11] = system: OVCAR-5 ovarian
[12] = system: SF-295 CNS
[13] = system: COLO 205 colon
[14] = system: T-47D breast
[15] = system: DU-145 prostate
[16] = system: NCI/ADR-RES ovarian
[17] = system: SK-MEL-28 melanoma
[18] = system: HOP-62 NSCLC
[19] = system: MDA-MB-435
[20] = system: 786-0 renal
[21] = system: SF-539 CNS
[22] = system: NCI-H522 lung
[23] = system: MDA-MB-231 breast
[24] = system: CAKI-1 renal
[25] = system: UACC-257 melanoma
[26] = system: RPMI-8226 leukemia
[27] = system: SNB-19 CNS
[28] = system: SN12C renal
[29] = system: OVCAR-8 ovarian
[30] = system: ACHN renal
[31] = system: SK-OV-3 ovarian
[32] = system: HT29 colon
[33] = system: HCT-15 colon
[34] = system: SF-268 CNS
[35] = system: A549 NSCLC
[36] = system: K-562 leukemia
[37] = system: HCC-2998 colon
[38] = system: SK-MEL-2 melanoma
[39] = system: HCT-116 colon
[40] = system: IGROV1 ovarian
[41] = system: SW-620 colon
[42] = system: NCI-H226 lung
[43] = system: SNB-75 CNS
[44] = system: M14 melanoma
[45] = system: OVCAR-3 ovarian
[46] = system: BT-549 breast
[47] = system: MCF7 breast
[48] = system: TK-10 renal
[49] = system: LOX IMVI melanoma
[50] = system: SR leukemia
[51] = system: HOP-92 NSCLC
[52] = system: HL-60(TB) leukemia
[53] = system: UACC-62 melanoma
[54] = system: KM12 colon
[55] = system: U251 CNS
[56] = system: RXF 393 renal
[57] = system: CCRF-CEM leukemia
[58] = system: NCI-H23 lung

Measured: TGI

NC(=O)NN=C1C[C@H]2CCCC[C@H]2C1
not listed: [56] | [57] | [58]
> 100 µM: all other assays above

CN1C(NN)=NS(=O)(=O)c2ccccc21
not listed: [26] | [43]
> 100 µM: all other assays above
